Results on one compound are retold here after patent US11952328B2, “Selective ship inhibitors for treating disease” (THE RESEARCH FOUNDATION FOR THE STATE UNIVERSITY OF NEW YORK, priority 2018, dated 2024).

One assay deals with NK cells and T cells. The assay is described as follows: NK and T cell numbers, maturation and FasL expression by flow cytometry after two-day treatment. Format: in vivo, mice. An excerpt:
FIGS. 5A-5I show the effects of SHIP1 inhibitor as a chemotherapeutic. […] FIG. 5D and FIG. 5E show the representative histograms and box-and-whisker plots of FasL expression by NK cells from C56BL/6 (p=0.0002; Unpaired t test with Welch's correction) or RAG1−/− (p<0.0001; Mann-Whitney U test) tumor challenged, SHIP inhibitor or vehicle treated hosts. […] (NK cells p=0.0192; Unpaired t test with Welch's correction. T cells p=0.0659; Mann-Whitney U test). Additionally, FIGS. 5A-5G show the analysis by flow cytometry on day 3 after hosts receive SHIP inhibitor or vehicle for two consecutive days. NK cells are defined as NK1.1+CD3ε−. The graphs are representative of at least two independent experiments with at least four SHIP inhibitor and vehicle treated mice. […] Viability is expressed as frequency at a given concentration expressed as a percentage of solvent only treated cells. The kill curve summarizes pooled data from three independent experiments using six replicate wells/concentration with mean ±SEM indicated (n=18 per group. One-way ANOVA with Dunnett's multiple comparisons. 0 pM vs. 20 pM Adjusted p value =0.0001. 0 pM vs. 15 pM Adjusted p value =0.0001. 0 pM vs. 10 pM Adjusted p value =0.0001. 0 pM vs. 7.5 pM Adjusted p value =0.0001. 0 pM vs. 5 pM Adjusted p value =0.0001).
NK cells are able to directly kill target cells through several different mechanisms including both production of perforin and granzymes and induction of apoptosis via Fas-FasL signaling (Arase, H. et al., Fas-mediated cytotoxicity by freshly isolated natural killer cells. J Exp Med. (1995); 181: 1235-1238; Zamai, L. et al., Natural killer (NK) cell-mediated cytotoxicity: differential use of TRAIL and Fas ligand by immature and mature primary human NK cells. J Exp Med. (1998); 188: 2375-2380). […] SHIP1 was recently shown to be recruited to CD95/Fas to set a threshold for induction of Caspase 8, and thereby, a threshold for induction of apoptosis (Park, M. Y. et al., Impaired T-cell survival promotes mucosal inflammatory disease in SHIP1-deficient mice. Mucosal Immunol. (2014); 7: 1429-1439). This pathway might contribute to 3AC-mediated killing of lymphoma cells in a host-extrinsic fashion and, possibly, even to NK cell mediated clearance of tumor in vivo. To explore this possibility, whether 3AC induces FasL, the death ligand, on cytotoxic host cells present in the tumor site was examined. […] This is consistent with what has been previously reported with multiple myeloma, myeloid leukemias and T cell leukemia, and that others have recently reported in preB ALL (Park, M. Y. et al., Impaired T-cell survival promotes mucosal inflammatory disease in SHIP1-deficient mice. Mucosal Immunol. (2014); 7: 1429-1439; Brooks, R. et al., SHIP1 inhibition increases immunoregulatory capacity and triggers apoptosis of hematopoietic cancer cells. J Immunol. (2010); 184: 3582-3589; Fuhler, G. M. et al., Therapeutic potential of SH2 domain-containing inositol-5′-phosphatase 1 (SHIP1) and SHIP2 inhibition in cancer. Mol Med. (2012); 18: 65-75; Chen, Z. et al, Signalling thresholds and negative B-cell selection in acute lymphoblastic leukaemia. Nature. (2015)) . […] Therefore, the improved tumor clearance and survival following acute 3AC treatment in vivo may result from both a chemotherapeutic effect and enhanced immune control.
A general note: In flow cytometry, cells or beads pass a laser one at a time.

The next assay concerns the target T1, SHIP1 (Homo sapiens, UniProt Q92835).
T1 sequence (Q92835 1-1189): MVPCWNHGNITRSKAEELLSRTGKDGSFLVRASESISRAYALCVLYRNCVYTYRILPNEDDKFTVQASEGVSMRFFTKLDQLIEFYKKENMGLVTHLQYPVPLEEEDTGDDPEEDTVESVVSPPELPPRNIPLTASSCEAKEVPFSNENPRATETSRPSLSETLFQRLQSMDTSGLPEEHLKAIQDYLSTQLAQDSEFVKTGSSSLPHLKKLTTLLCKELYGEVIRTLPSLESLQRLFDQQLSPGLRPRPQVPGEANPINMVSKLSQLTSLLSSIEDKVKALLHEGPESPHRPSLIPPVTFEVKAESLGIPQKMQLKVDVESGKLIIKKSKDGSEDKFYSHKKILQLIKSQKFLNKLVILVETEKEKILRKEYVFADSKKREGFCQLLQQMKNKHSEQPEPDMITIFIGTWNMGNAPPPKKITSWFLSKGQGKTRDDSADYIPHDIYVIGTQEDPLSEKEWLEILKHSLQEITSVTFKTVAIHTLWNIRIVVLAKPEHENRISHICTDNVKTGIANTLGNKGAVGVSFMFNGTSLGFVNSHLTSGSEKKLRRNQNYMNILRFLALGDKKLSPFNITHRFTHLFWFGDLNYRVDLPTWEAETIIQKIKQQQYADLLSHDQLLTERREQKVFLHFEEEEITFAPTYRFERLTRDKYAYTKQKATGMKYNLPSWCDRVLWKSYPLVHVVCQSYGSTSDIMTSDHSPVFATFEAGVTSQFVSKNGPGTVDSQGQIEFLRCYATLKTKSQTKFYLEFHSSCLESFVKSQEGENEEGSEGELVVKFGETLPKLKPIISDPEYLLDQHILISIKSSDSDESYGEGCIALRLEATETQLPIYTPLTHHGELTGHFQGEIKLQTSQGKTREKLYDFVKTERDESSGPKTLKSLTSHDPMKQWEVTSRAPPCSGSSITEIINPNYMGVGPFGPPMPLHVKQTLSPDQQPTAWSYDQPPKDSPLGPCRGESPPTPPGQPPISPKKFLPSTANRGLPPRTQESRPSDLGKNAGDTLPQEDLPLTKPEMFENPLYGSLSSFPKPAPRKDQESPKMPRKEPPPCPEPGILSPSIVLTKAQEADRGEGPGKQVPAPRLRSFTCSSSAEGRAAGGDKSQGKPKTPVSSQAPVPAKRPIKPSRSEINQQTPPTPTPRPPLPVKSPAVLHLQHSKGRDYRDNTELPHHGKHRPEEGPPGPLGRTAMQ
As to conditions: Brooks et al. 2010; cited from earlier work.

Consider `CC(C)CCC[C@@H](C)[C@H]1CC[C@H]2[C@@H]3CCC4C[C@H](N)CC[C@]4(C)[C@H]3CC[C@]12C` (stereo partly drawn) [Compound 3AC, 3-α-aminocholestane], for which the “FasL expression, splenic NK cells” value with NK cells and T cells (C57BL/6 mice, vs vehicle) is reported as “small, but significantly increased frequency”. Also, the “terminal maturation of the peripheral NK cell compartment” value in the assay with NK cells and T cells (spleen, naive or tumor challenged C57BL/6 hosts, vs vehicle) is given as “significantly increased”. Besides, the “number of NK cells at the tumor site in the peritoneal cavity” value in the assay with NK cells and T cells (tumor challenged C57BL/6 hosts, vs vehicle) is listed as “significantly increased”. Besides, the “FasL expression of host NK cells and T cells at the tumor site” value in the assay with NK cells and T cells (tumor challenged hosts, vs vehicle) was “profound acquisition of FasL”. For the same compound, the “number of splenic NK cells” value with NK cells and T cells (two days of treatment vs vehicle) is “decreased numbers”. In addition, the “selectivity for SHIP1” value on SHIP1 is listed as “high degree of selectivity”.
